Consider twelve molecules from ChEMBL document CHEMBL5584231, “Rational design of a new short anticancer peptide with good potential for cancer treatment” (Eur J Med Chem, 2024).

Residues, ends and D or L forms follow the SMILES beside them.

Data set [1] is described as follows: Therapeutic index, ratio of HC10 for mouse RBC to IC50 for cytotoxicity against human A549 cells. The format is toxicity, cell-based. The settings on record: mouse RBC and A549 cells, read-out: TI.
Data set [2] can be described thus: Therapeutic index, ratio of HC10 for mouse RBC to IC50 for cytotoxicity against RG cells (unknown origin). The format is toxicity, cell-based. The settings on record: mouse RBC and RG cells, read-out: TI.
A short description of data set [3]: Cytotoxicity against RG cells (unknown origin) assessed as inhibition of cell growth incubated for 1 hr by MTT assay. The format is functional, cell-based.
Data set [4] deals with HeLa. Nature of the data set: Cytotoxicity against human HeLa cells assessed as inhibition of cell growth incubated for 1 hr by MTT assay. The format is functional, cell-based.
A short description of data set [5]: Therapeutic index, ratio of HC10 for mouse RBC to IC50 for cytotoxicity against human MCF7 cells. Format: toxicity, cell-based. The settings on record: mouse RBC and MCF7 cells, read-out: TI.
Data set [6] relates to MCF7. As to the kind of experiment: Cytotoxicity against human MCF7 cells assessed as inhibition of cell growth incubated for 1 hr by MTT assay. Format: functional, cell-based. The settings on record: MCF7, 1 h.
Data set [7] has as its system A549. As to the kind of experiment: Cytotoxicity against human A549 cells assessed as inhibition of cell growth incubated for 1 hr by MTT assay. The settings on record: A549, 1 h. The format is functional, cell-based.
Data set [8] can be described thus: Cytotoxicity against HK-2 cells assessed as inhibition of cell growth incubated for 1 hr by MTT assay. Format: toxicity, cell-based. The settings on record: human.
Data set [9] in a line: Therapeutic index, ratio of HC10 for mouse RBC to IC50 for cytotoxicity against human HeLa cells. The format is toxicity, cell-based. The settings on record: mouse RBC and HeLa cells, read-out: TI.

Turning to `CC(C)C[C@H](NC(=O)[C@H](CC(C)C)NC(=O)[C@H](CCCCN)NC(=O)[C@H](CCCCN)NC(=O)[C@H](CC(C)C)NC(=O)[C@H](CC(C)C)NC(=O)[C@H](CCCCN)NC(=O)[C@H](CCCCN)NC(=O)[C@H](CC(C)C)NC(=O)[C@H](CC(C)C)NC(=O)[C@H](CCCCN)NC(=O)[C@H](CCC(=O)O)NC(=O)[C@H](CC(C)C)NC(=O)[C@@H](N)CC(C)C)C(N)=O` (H-LLEKLLKKLLKKLL-NH2), the selectivity ratio in [1] was determined as 0.767; in data set [2], 0.563; in [5], 0.595; in [9], 0.883. The IC50 stood at 11.1 µM in [3], 7.05 µM in [4], 10.5 µM in data set [6] and 8.11 µM in data set [7]. For the same molecule, the IC50 at 1 h in data set [8] came to 11 µM.
As for `CC(C)C[C@H](NC(=O)[C@H](CC(C)C)NC(=O)[C@H](CCCCN)NC(=O)[C@H](CCCCN)NC(=O)[C@H](CC(C)C)NC(=O)[C@H](CC(C)C)NC(=O)[C@H](CCCCN)NC(=O)[C@H](CCCCN)NC(=O)[C@H](CC(C)C)NC(=O)[C@H](CC(C)C)NC(=O)[C@H](CCC(=O)O)NC(=O)[C@H](CCCCN)NC(=O)[C@H](CC(C)C)NC(=O)[C@@H](N)CC(C)C)C(N)=O` (H-LLKELLKKLLKKLL-NH2), the selectivity ratio in data set [1] amounted to 0.966; in [2] it was 1.26; in data set [5] it was 1.24; in data set [9], 1.78. In addition, the IC50 is 18.2 µM in [3], 12.9 µM in data set [4], 18.5 µM in data set [6] and 23.8 µM in data set [7]. For the same molecule, the IC50 at 1 h in data set [8] is 21.4 µM.
Regarding `CC(C)C[C@H](NC(=O)[C@H](CC(C)C)NC(=O)[C@H](CCCCN)NC(=O)[C@H](CCCCN)NC(=O)[C@H](CC(C)C)NC(=O)[C@H](CC(C)C)NC(=O)[C@H](CCCCN)NC(=O)[C@H](CCCCN)NC(=O)[C@H](CC(C)C)NC(=O)[C@H](CCC(=O)O)NC(=O)[C@H](CCCCN)NC(=O)[C@H](CCCCN)NC(=O)[C@H](CC(C)C)NC(=O)[C@@H](N)CC(C)C)C(N)=O` (H-LLKKELKKLLKKLL-NH2), the selectivity ratio stood at 9.94 in [1], 7.14 in [2], 8.02 in [5] and 12 in data set [9]. Further, the IC50 in data set [3] amounted to 24.1 µM; in data set [4], 14.4 µM; in data set [6], 21.4 µM; in data set [7] it was 17.3 µM. Besides, in data set [8], the IC50 at 1 h amounted to 37.3 µM.
For `CC(C)C[C@H](NC(=O)[C@H](CC(C)C)NC(=O)[C@H](CCCCN)NC(=O)[C@H](CCCCN)NC(=O)[C@H](CC(C)C)NC(=O)[C@H](CC(C)C)NC(=O)[C@H](CCCCN)NC(=O)[C@H](CCCCN)NC(=O)[C@H](CCC(=O)O)NC(=O)[C@H](CC(C)C)NC(=O)[C@H](CCCCN)NC(=O)[C@H](CCCCN)NC(=O)[C@H](CC(C)C)NC(=O)[C@@H](N)CC(C)C)C(N)=O` (H-LLKKLEKKLLKKLL-NH2), the selectivity ratio came to 0.943 in data set [1], 1.2 in data set [2], 2.47 in data set [5] and 4.8 in data set [9]. Besides, the IC50 in data set [3] was 418 µM; in data set [4], 104 µM; in [6] it was 202 µM; in data set [7] it was 530 µM. The IC50 at 1 h in [8] is 264 µM.
Regarding `CC(C)C[C@H](NC(=O)[C@H](CC(C)C)NC(=O)[C@H](CCCCN)NC(=O)[C@H](CCCCN)NC(=O)[C@H](CC(C)C)NC(=O)[C@H](CC(C)C)NC(=O)[C@H](CCCCN)NC(=O)[C@H](CCC(=O)O)NC(=O)[C@H](CC(C)C)NC(=O)[C@H](CC(C)C)NC(=O)[C@H](CCCCN)NC(=O)[C@H](CCCCN)NC(=O)[C@H](CC(C)C)NC(=O)[C@@H](N)CC(C)C)C(N)=O` (H-LLKKLLEKLLKKLL-NH2), the selectivity ratio in data set [1] amounted to 2.49; in data set [2], 2.18; in data set [5] it was 2.1; in data set [9], 3.41. The IC50 was found to be 4.5 µM in data set [3], 2.87 µM in [4], 4.67 µM in [6] and 3.93 µM in data set [7]. For the same molecule, in [8], the IC50 at 1 h turned out to be 4.9 µM.
In the case of `CC(C)C[C@H](NC(=O)[C@H](CC(C)C)NC(=O)[C@H](CCCCN)NC(=O)[C@H](CCCCN)NC(=O)[C@H](CC(C)C)NC(=O)[C@H](CC(C)C)NC(=O)[C@H](CCC(=O)O)NC(=O)[C@H](CCCCN)NC(=O)[C@H](CC(C)C)NC(=O)[C@H](CC(C)C)NC(=O)[C@H](CCCCN)NC(=O)[C@H](CCCCN)NC(=O)[C@H](CC(C)C)NC(=O)[C@@H](N)CC(C)C)C(N)=O` (H-LLKKLLKELLKKLL-NH2), the selectivity ratio in [1] turned out to be 1.39; in data set [2], 1.1; in data set [5], 1.32; in data set [9], 1.15. Moreover, the IC50 in data set [3] is 4.74 µM; in data set [4], 4.54 µM; in data set [6], 3.95 µM; in [7], 3.75 µM. In data set [8], the IC50 at 1 h came to 3.8 µM.
Turning to `CC(C)C[C@H](NC(=O)[C@H](CC(C)C)NC(=O)[C@H](CCCCN)NC(=O)[C@H](CCCCN)NC(=O)[C@H](CC(C)C)NC(=O)[C@H](CCC(=O)O)NC(=O)[C@H](CCCCN)NC(=O)[C@H](CCCCN)NC(=O)[C@H](CC(C)C)NC(=O)[C@H](CC(C)C)NC(=O)[C@H](CCCCN)NC(=O)[C@H](CCCCN)NC(=O)[C@H](CC(C)C)NC(=O)[C@@H](N)CC(C)C)C(N)=O` (H-LLKKLLKKELKKLL-NH2), the selectivity ratio in data set [1] came to 1.04; in data set [2], 2.3; in data set [5], 2.76; in data set [9], 4.18. Also, the IC50 in data set [3] turned out to be 217 µM; in [4], 120 µM; in data set [6], 181 µM; in data set [7] it was 482 µM. For the same molecule, the IC50 at 1 h in data set [8] is 146 µM.
As to `CC(C)C[C@H](NC(=O)[C@H](CC(C)C)NC(=O)[C@H](CCCCN)NC(=O)[C@H](CCCCN)NC(=O)[C@H](CCC(=O)O)NC(=O)[C@H](CC(C)C)NC(=O)[C@H](CCCCN)NC(=O)[C@H](CCCCN)NC(=O)[C@H](CC(C)C)NC(=O)[C@H](CC(C)C)NC(=O)[C@H](CCCCN)NC(=O)[C@H](CCCCN)NC(=O)[C@H](CC(C)C)NC(=O)[C@@H](N)CC(C)C)C(N)=O` (H-LLKKLLKKLEKKLL-NH2), the selectivity ratio in data set [1] stood at 5.74; in data set [2], 6.34; in data set [5] it was 5.15; in [9], 11.4. Moreover, the IC50 in data set [3] amounted to 78.9 µM; in data set [4], 43.7 µM; in data set [6], 97.1 µM; in data set [7] it was 87.1 µM. Moreover, the 50% inhibitory concentration (IC50) at 1 h in [8] was found to be 92.5 µM.
In the case of `CC(C)C[C@H](NC(=O)[C@H](CC(C)C)NC(=O)[C@H](CCCCN)NC(=O)[C@H](CCC(=O)O)NC(=O)[C@H](CC(C)C)NC(=O)[C@H](CC(C)C)NC(=O)[C@H](CCCCN)NC(=O)[C@H](CCCCN)NC(=O)[C@H](CC(C)C)NC(=O)[C@H](CC(C)C)NC(=O)[C@H](CCCCN)NC(=O)[C@H](CCCCN)NC(=O)[C@H](CC(C)C)NC(=O)[C@@H](N)CC(C)C)C(N)=O` (H-LLKKLLKKLLEKLL-NH2), the selectivity ratio in data set [1] was found to be 3.48; in data set [2] it was 3.04; in data set [5] it was 2.28; in [9], 3.15. Further, the IC50 stood at 5.73 µM in data set [3], 5.53 µM in data set [4], 7.66 µM in [6] and 5.01 µM in data set [7]. Also, the IC50 at 1 h in data set [8] came to 4.49 µM.
Consider `CC(C)C[C@H](NC(=O)[C@H](CC(C)C)NC(=O)[C@H](CCC(=O)O)NC(=O)[C@H](CCCCN)NC(=O)[C@H](CC(C)C)NC(=O)[C@H](CC(C)C)NC(=O)[C@H](CCCCN)NC(=O)[C@H](CCCCN)NC(=O)[C@H](CC(C)C)NC(=O)[C@H](CC(C)C)NC(=O)[C@H](CCCCN)NC(=O)[C@H](CCCCN)NC(=O)[C@H](CC(C)C)NC(=O)[C@@H](N)CC(C)C)C(N)=O` (H-LLKKLLKKLLKELL-NH2), for which the selectivity ratio in [1] stood at 0.474; in [2] it was 0.838; in data set [5], 0.438; in data set [9], 0.352. Also, the IC50 in [3] was 6.16 µM; in [4], 14.7 µM; in data set [6] it was 11.8 µM; in [7] it was 10.9 µM. In data set [8], the IC50 at 1 h stood at 10.8 µM.
For `CC(C)C[C@H](NC(=O)[C@H](CCC(=O)O)NC(=O)[C@H](CCCCN)NC(=O)[C@H](CCCCN)NC(=O)[C@H](CC(C)C)NC(=O)[C@H](CC(C)C)NC(=O)[C@H](CCCCN)NC(=O)[C@H](CCCCN)NC(=O)[C@H](CC(C)C)NC(=O)[C@H](CC(C)C)NC(=O)[C@H](CCCCN)NC(=O)[C@H](CCCCN)NC(=O)[C@H](CC(C)C)NC(=O)[C@@H](N)CC(C)C)C(N)=O` (H-LLKKLLKKLLKKEL-NH2), the selectivity ratio in data set [1] was 5.86; in data set [2], 5.81; in data set [5], 4.38; in [9] it was 13.7. Further, the IC50 in [3] amounted to 75.9 µM; in data set [4], 32.2 µM; in [6], 101 µM; in data set [7], 75.3 µM. Besides, in data set [8], the IC50 at 1 h amounted to 73 µM.
On to `CC(C)C[C@H](NC(=O)[C@H](CCCCN)NC(=O)[C@H](CCCCN)NC(=O)[C@H](CC(C)C)NC(=O)[C@H](CC(C)C)NC(=O)[C@H](CCCCN)NC(=O)[C@H](CCCCN)NC(=O)[C@H](CC(C)C)NC(=O)[C@H](CC(C)C)NC(=O)[C@H](CCCCN)NC(=O)[C@H](CCCCN)NC(=O)[C@H](CC(C)C)NC(=O)[C@@H](N)CC(C)C)C(=O)N[C@@H](CC(=O)O)C(N)=O` (H-LLKKLLKKLLKKLD-NH2), for which the selectivity ratio in [1] stood at 20; in [2] it was 11.4; in data set [5], 12.2; in [9], 31.1. Besides, the IC50 in data set [3] is 32.8 µM; in data set [4] it was 12.1 µM; in [6], 30.7 µM; in data set [7], 18.8 µM. Moreover, the IC50 at 1 h in data set [8] stood at 50.3 µM.
